Measurements from patent US20160047819A1, “METHOD FOR DIAGNOSING VAGINAL INFECTIONS” (priority 2013, published 2016).

Tested on: vaginal proteome (human proteins in vaginal fluid)
Experiment: MS/MS proteomic analysis of vaginal fluid pools, BV-affected women before (BV) and after rifaximin/placebo treatment: human proteins
Format: in vivo
Conditions: for Ratio: BV/R, Alpha-1-acid glycoprotein 1 / Ratio: BV/R, Alpha-1-acid glycoprotein 2 / Ratio: BV/R, Calcium-activated chloride channel regulator 4 / Ratio: BV/R, Catalase / Ratio: BV/R, Desmocollin-2 / Ratio: BV/R, Galectin-3-binding protein / Ratio: BV/R, Hemopexin / Ratio: BV/R, Ig mu chain C region / Ratio: BV/R, Immunoglobulin J chain / Ratio: BV/R, Keratin, type I cytoskeletal 10 / Ratio: BV/R, Keratin, type II cytoskeletal 1 / Ratio: BV/R, Keratin, type II cytoskeletal 2 epidermal / Ratio: BV/R, Keratin, type II cytoskeletal 5 / Ratio: BV/R, Lymphocyte-specific protein 1 / Ratio: BV/R, Myeloblastin / Ratio: BV/R, Neutrophil gelatinase-associated lipocalin / Ratio: BV/R, Perilipin-3 / Ratio: BV/R, Periplakin / Ratio: BV/R, Protein S100-A7 / Ratio: BV/R, Protein S100-A9 / Ratio: BV/R, Small proline-rich protein 3 / Ratio: BV/R, Superoxide dismutase [Cu—Zn] / Ratio: BV/R, Vitamin D-binding protein: vaginal fluid
Protocol: Proteomic analysis was performed on 9 pools of vaginal isolates, grouped according to the status of the BV infection: • H pool (from 41 healthy women); BV pool (from 39 BV-affected women); • A-R pool (from 2 women who were in remission after rifaximin treatment-group A); • A-N pool (from 8 women who were not in remission after rifaximin treatment-group A); • B-R pool (from 5 women who were in remission after rifaximin treatment-group B); • B-N pool (from 5 women who were not in remission after rifaximin treatment-group B); • C-R pool (from 4 women who were in remission after rifaximin treatment-group C); • C-N (from 5 women who were not in remission after rifaximin treatment-group C); • D-N (from 10 women who were not in remission after placebo treatment-group D). Scheme of the vaginal fluids collected for testing the diagnostic method is represented in FIG. 1.
In these figures are reported the peptides in the fractionated pools of healthy women, women affected by BV and peptides of women treated with rifaximin. The treatment with rifaximin was at dosage of 100 mg/day for 5 days; (remission, A-R; no remission, A-N), 25 mg/5 days (remission, B-R; no remission, B-N), 100 mg/2 days (remission, C-R; no remission, C-N), and placebo for 5 days (D-N). Two types of comparisons were carried out: (i) between fractionated pools of proteins from vaginal fluid of healthy women (HF) versus fractionated pool of proteins from vaginal fluid of women affected by bacterial vaginosis (BVF); (ii) between whole pools of proteins from vaginal fluid of women affected by BV treated by administering different doses of rifaximin or placebo before (BV) and after (A-R, A-N, B-R, B-N, C-R, C-N, D-N) treatment. Fractioned pools of proteins are obtained, e.g., by separating the proteins by separation on membrane filtration with different membrane porosity, prior to MS/MS analysis.
Nine volumes of acetone: HCl (10:1) were added to the supernatant of the vaginal rinsing and proteins were precipitated by centrifuging at 12000 g for 10 min. The protein pellet was dissolved in 1 mL of 70% ethanol and the sample was spun at 12000 g for 10 min. One mL of acetone was added and the proteins were further precipitated by centrifugation at 12000 g for 5 min. After removing supernatant, pellet was dried by SpeedVac concentrator (Thermo Savant ISS110, Thermo Fisher Scientific, Waltham, Mass.) and then stored at −20° C.
Protein extract was quantified using the 2-D Quant Kit (GE Healthcare, Uppsala, Sweden) according to the manufacturer's instructions.
Patients who were diagnosed for BV at the study visit V1 were included in a multicentre, double-blind, randomised, placebo-controlled study (EudraCT: 2009-011826-32), that was performed to compare the efficacy of different doses of rifaximin vaginal tablets versus placebo for the treatment of BV. The patients underwent a randomisation visit and were distributed into 4 treatment groups: group A received 100 mg rifaximin vaginal tablet once daily for 5 days (n=10), group B received 25 mg rifaximin vaginal tablet once daily for 5 days (n=10), group C received 100 mg rifaximin vaginal tablet once daily for the first 2 days and placebo vaginal tablet for the remaining 3 days (n=9), group D received placebo vaginal tablet once daily for 5 days (n=10). Study medication was administered intra-vaginally at bedtime. After 7 to 10 days from the end of the therapy a follow-up visit (V3) was performed. Remission was evaluated at V3 according to Amsel's criteria (<3) and Gram stain Nugent score (≦3) (Table 1).
Standardized vaginal rinsings with 2 mL of saline were collected for analysis at V1 and V3 by flushing and re-aspirating the fluid through a 22 Gauge needle in the left, central and right upper vaginal vaults. The vaginal rinsings were subsequently stored at −80° C. until use.
MS/MS analysis was carried out for H and BV pools and for the whole BV, A-R, A-N, B-R, B-N, C-R, C-N and D-N pools containing 50 μg of protein each. […]

[1] = A-R pool (100 mg × 5 days, in remission) vs BV pool before treatment
[2] = B-R pool (25 mg × 5 days, in remission) vs BV pool before treatment
[3] = B-R pool (25 mg × 5 days, remission) vs BV pool
[4] = B-R pool vs BV pool, differentially expressed only in B-R
[5] = C-R pool (100 mg × 2 days, in remission) vs BV pool before treatment

## CO[C@H]1/C=C/O[C@@]2(C)Oc3c(C)c(O)c4c(O)c(c5c(nc6cc(C)ccn65)c4c3C2=O)NC(=O)/C(C)=C\C=C\[C@H](C)[C@H](O)[C@@H](C)[C@@H](O)[C@@H](C)[C@H](OC(C)=O)[C@@H]1C [rifaximin]
[1]
  Ratio: BV/R, Alpha-1-acid glycoprotein 1: 2.3
  Ratio: BV/R, Alpha-1-acid glycoprotein 2: 1.5
  Ratio: BV/R, Calcium-activated chloride channel regulator 4: 2.9
  Ratio: BV/R, Catalase: 0.0
  Ratio: BV/R, Desmocollin-2: −1.5
  Ratio: BV/R, Galectin-3-binding protein: 3.6
  Ratio: BV/R, Hemopexin: 1.9
  Ratio: BV/R, Ig mu chain C region: 1.8
  Ratio: BV/R, Immunoglobulin J chain: −1.5
  Ratio: BV/R, Keratin, type I cytoskeletal 10: −2.8
  Ratio: BV/R, Keratin, type II cytoskeletal 1: −3.9
  Ratio: BV/R, Keratin, type II cytoskeletal 2 epidermal: −4.3
  Ratio: BV/R, Keratin, type II cytoskeletal 5: −16.3
  Ratio: BV/R, Lymphocyte-specific protein 1: −2.8
  Ratio: BV/R, Myeloblastin: 0.0
  Ratio: BV/R, Neutrophil gelatinase-associated lipocalin: 0.0
  Ratio: BV/R, Perilipin-3: −1.7
  Ratio: BV/R, Periplakin: −3.6
  Ratio: BV/R, Protein S100-A7: 19.2
  Ratio: BV/R, Protein S100-A9: 4.2
  Ratio: BV/R, Small proline-rich protein 3: −6.6
  Ratio: BV/R, Superoxide dismutase [Cu—Zn]: 1.8
  Ratio: BV/R, Vitamin D-binding protein: 1.7
B-N pool vs BV pool
  number of differentially expressed human proteins: 155
[2]
  Ratio: BV/R, Alpha-1-acid glycoprotein 1: 7.8
  Ratio: BV/R, Alpha-1-acid glycoprotein 2: 19.5
  Ratio: BV/R, Calcium-activated chloride channel regulator 4: 0.0
  Ratio: BV/R, Catalase: 4.0
  Ratio: BV/R, Desmocollin-2: −2.0
  Ratio: BV/R, Galectin-3-binding protein: 2.7
  Ratio: BV/R, Hemopexin: 9.0
  Ratio: BV/R, Ig mu chain C region: 8.1
  Ratio: BV/R, Immunoglobulin J chain: −4.1
  Ratio: BV/R, Keratin, type I cytoskeletal 10: −3.5
  Ratio: BV/R, Keratin, type II cytoskeletal 1: −6.2
  Ratio: BV/R, Keratin, type II cytoskeletal 2 epidermal: −7.1
  Ratio: BV/R, Keratin, type II cytoskeletal 5: −12.7
  Ratio: BV/R, Lymphocyte-specific protein 1: −3.2
  Ratio: BV/R, Myeloblastin: 3.1
  Ratio: BV/R, Neutrophil gelatinase-associated lipocalin: −1.5
  Ratio: BV/R, Perilipin-3: −2.9
  Ratio: BV/R, Periplakin: −3.4
  Ratio: BV/R, Protein S100-A7: 5.7
  Ratio: BV/R, Protein S100-A9: 2.6
  Ratio: BV/R, Small proline-rich protein 3: −6.6
  Ratio: BV/R, Superoxide dismutase [Cu—Zn]: 1.5
  Ratio: BV/R, Vitamin D-binding protein: 17.8
[3]
  expression change of Kininogen-1: −88.6 ratio
  expression change of Prostate stem cell antigen: 63.8 ratio
  expression change of Stanniocalcin-1: 113.1 ratio
B-R pool vs BV pool
  number of differentially expressed human proteins: 214
[4]
  expression change of Ig heavy chain V-III region BUT: −1.6 ratio
  expression change of Ig heavy chain V-III region VH26: −1.5 ratio
  expression change of Kallikrein-13: 1.5 ratio
  expression change of Neutrophil gelatinase-associated lipocalin: 1.5 ratio
  expression change of Zinc-alpha-2-glycoprotein: −9.4 ratio
[5]
  Ratio: BV/R, Alpha-1-acid glycoprotein 1: 0.0
  Ratio: BV/R, Alpha-1-acid glycoprotein 2: −1.9
  Ratio: BV/R, Calcium-activated chloride channel regulator 4: 1.8
  Ratio: BV/R, Catalase: 2.3
  Ratio: BV/R, Desmocollin-2: 0.0
  Ratio: BV/R, Galectin-3-binding protein: 0.0
  Ratio: BV/R, Hemopexin: 1.7
  Ratio: BV/R, Ig mu chain C region: 0.0
  Ratio: BV/R, Immunoglobulin J chain: −2.2
  Ratio: BV/R, Keratin, type I cytoskeletal 10: 0.0
  Ratio: BV/R, Keratin, type II cytoskeletal 1: −2.3
  Ratio: BV/R, Keratin, type II cytoskeletal 2 epidermal: 0.0
  Ratio: BV/R, Keratin, type II cytoskeletal 5: −2.5
  Ratio: BV/R, Lymphocyte-specific protein 1: 0.0
  Ratio: BV/R, Myeloblastin: 4.0
  Ratio: BV/R, Neutrophil gelatinase-associated lipocalin: 0.0
  Ratio: BV/R, Perilipin-3: −2.3
  Ratio: BV/R, Periplakin: −2.0
  Ratio: BV/R, Protein S100-A7: 2.5
  Ratio: BV/R, Protein S100-A9: 0.0
  Ratio: BV/R, Small proline-rich protein 3: −4.4
  Ratio: BV/R, Superoxide dismutase [Cu—Zn]: 0.0
